The subject of test [1] is neutrophils. Kind of test: Screening of samples in calgranulin-stimulated elastase secretion from permeabilized neutrophils (Example 3). It counts as cell-based, human. The note with it: sample 30 μM; for Amount of secretion (%): elastase, control without sample = 100%, calcium chloride 1 μM plus calgranulin (type and concentration not given); for effect on elastase (granule) secretion from neutrophils, in words: calgranulin A activated system.

Test [2] has as its system human neutrophils. Kind of test: Elastase secretion from permeabilized human neutrophils on addition of calgranulin and calcium chloride (Example 1). It counts as cell-based. The note with it: 3 μM calgranulin, 1 μM calcium chloride, digitonin-permeabilized neutrophils, 37° C. 5 minutes. As for the experimental part: A neutrophil suspension was prepared from blood collected from human vein according to the method described in Biological Chemistry Experiment Lecture, second series, No. 8, Blood, Vol. 2, 679-685). The neutrophil suspension was adjusted to a concentration of 1×10^7 cells/ml in a plastic test tube using a permeabilized buffer (PB) (30 mM HEPES, 100 mM KCl, 20 mM NaCl, 1 mM EGTA, pH 7.0) and incubated at 37° C. for 10 minutes. Digitonin (Sigma company) was added to the neutrophil suspension to a final concentration of 5-7.5 μg/ml and the mixture was incubated at, 37° C. for 15 minutes. The neutrophil suspension was centrifuged at 1200 rpm for 5 minutes. After discarding supernatant, precipitated neutrophils were re-suspended in PB to prepare a permeabilized neutrophil suspension (cell concentration: 1×10^7/ml).
The permeabilized neutrophil suspension was added to a 96-well immunoplate, 200 μl per well, and incubated for at 37° C. 15 minutes. […]
The 96-well immunoplate was centrifuged at 1200 rpm for one minute at 4° C. using a centrifugation container for immunoplates. […] Then, absorbance at 405 nm was measured using a microplate reader.

The test system of test [3] is human neutrophils. Kind of test: Lactoferrin secretion from permeabilized human neutrophils on addition of calgranulin and calcium chloride, ELISA (Example 2). The note with it: 3 μM calgranulin, 1 μM calcium chloride, digitonin-permeabilized neutrophils, 37° C. 5 minutes. It counts as cell-based. As for the experimental part: A neutrophil suspension was prepared from blood collected from human vein according to the method described in Biological Chemistry Experiment Lecture, second series, No. 8, Blood, Vol. 2, 679-685). The neutrophil suspension was adjusted to a concentration of 1×10^7 cells/ml using PB in a plastic test tube and incubated at 37° C. for 10 minutes. Digitonin (Sigma company) was added to the neutrophil suspension to a final concentration of 5 μg/ml and the mixture was incubated at 37° C. for 15 minutes.
The neutrophil suspension was centrifuged at 1200 rpm for 5 minutes. After supernatant was discarded, precipitated neutrophils were re-suspended in PB to prepare a permeabilized neutrophil suspension (cell concentration: 1×10^7 cells/ml). The permeabilized neutrophil suspension was added to a 96-well immunoplate, 200 μl per well, and incubated at 37° C. for 15 minutes. Next, an aqueous solution of calcium chloride (final concentration: 1 μM) and calgranulin A, calgranulin B, or a equimolar mixture of calgranulin A and calgranulin B (each to a final concentration of 0 μM, 0.3 μM, 1 μM, or 3 μM) were added, and the resulting mixtures were incubated at 37° C. for 5 minutes. The 96-well immunoplate was centrifuged at 1200 rpm for one minute at 4° C. ELISA-kit (OXIS Co.) was used for the determination of lactoferrin. […]
In general terms: ELISA stands for enzyme-linked immunosorbent assay.

As for `COc1ccc(CN(CCCCCCCN2CCNCC2)c2ccc(OC)cc2)cc1.Cl.Cl.Cl` [Compound 1, N-(4-methoxybenzyl)-N-(4-methoxyphenyl)-7-piperazinylheptyl amine trihydrochloride], in test [1], the “Amount of secretion (%)” value turned out to be 61% and the “effect on elastase (granule) secretion from neutrophils, in words” value (shortened to “effect on elastase (granule) secretion”) was “remarkably controlled granule secretion”.
Consider `COc1ccc(N(CCCCCCCN2CCNCC2)Cc2ccccc2)cc1.Cl.Cl.Cl` [Compound 2, N-benzyl-N-(4-methoxyphenyl)-7-piperazinylheptylamine trihydrochloride], for which, in test [1], the “Amount of secretion (%)” value came to 51% and the “effect on elastase (granule) secretion” value is reported as “remarkably controlled granule secretion”.
For `CCCCCCC(CC)=C(c1ccc(O)cc1)c1ccc(O)cc1` [Compound 3, 1,1-(di-4-hydroxyphenyl)-2-ethyl-1-octaene], in test [1], the “Amount of secretion (%)” value is recorded as 151% and the “effect on elastase (granule) secretion” value is listed as “remarkably increased the amount of secretion”.

B1: calgranulin A: calcium-binding protein with a molecular weight of about 8 kD; SEQ ID NOS 1 and 3 (protein, listed as Homo sapiens)
chain: MLTELEKALNSIIDVYHKYSLIKGNFHAVYRDDLKKLLETECPQYIRKKGADVWFKELDINTDGAVNFQEFLILVIKMGVAAHKKSHEESHKE
Take B1: in test [2], the “amount of elastase secretion, assuming secretion in the absence of calgranulin is 1” value is listed as “about eight”. Moreover, the “amount of lactoferrin secretion, assuming secretion in the absence of calgranulin is 1” value in test [3] was “about six”.

B2: calgranulin B: calcium-binding protein with a molecular weight of about 14 kD; SEQ ID NOS 2 and 4 (protein, listed as Homo sapiens)
chain: MTCKMSQLERNIETIINTFHQYSVKLGHPDTLNQGEFKELVRKDLQNFLKKENKNEKVIEHIMEDLDTNADKQLSFEEFIMLMARLTWASHEKMHEGDEGPGHHHKPGLGEGTP
Take B2: in test [2], the “amount of elastase secretion, assuming secretion in the absence of calgranulin is 1” value is “about seven”. Moreover, the “amount of lactoferrin secretion, assuming secretion in the absence of calgranulin is 1” value in test [3] was “about five”.
